The text below walks through data of patent US5843968A, “Symmetrical bis-heteroarylmethoxy-phenylalkyl carboxylates as inhibitors of leukotriene biosynthesis” (Abbott Laboratories, priority 1997, dated 1998).

The subject of one test is 5-Lipoxygenase. The experiment in a line: Inhibition of calcium ionophore-induced LTB4 formation in human polymorphonuclear leukocytes (PMNL), in vitro. In kind it is cell-based. The settings on record: 15 min preincubation, calcium ionophore stimulation 10 min at 37° C., LTB4 by enzyme-linked immunoassay or HPLC, read-out: IC50, In Vitro Inhibitory Potencies Against 5-Lipoxygenase From Stimulated LTB4 Formation in Human Polymorphonuclear Leukocytes. The protocol: Inhibition of leukotriene biosynthesis was evaluated in vitro using an assay involving calcium ionophore-induced LTB4 expressed in human polymorphornuclear leukocytes (PMNL). Human PMNL isolated from heparinized (20 USP units/mL) venous blood (25 mL) obtained from healthy volunteers was layered over an equal volume of Ficoll-Hypaque Mono-Poly Resolving Medium (ICN Flow, Costa Mesa, Calif.) and centrifugated at 400×g for 40 minutes at 20° C. The PMNL was collected, erythrocytes lysed and washed 2× and suspended at 1.0×10^7 cells/mL in Earle's balanced salt solution with 17 mM Earle's HEPES. Aliquots of the cell suspension were preincubated with test compounds dissolved in DMSO (final concentration <2%) for 15 minutes and stimulated with calcium ionophore (final concentration 8.3, μM) for 10 minutes at 37° C. Incubations were stopped with the addition of two volumes of ice-cold methanol followed by centrifuging the cell suspensions at 4° C. for 10 minutes at ~450×g. The amount of LTB4 in the methanol extract was analyzed by enzyme-linked immunoassay or by HPLC analysis.

The next test relates to leukotriene biosynthesis. The test can be described thus: Inhibition of leukotriene biosynthesis in vivo, Ionophore-Induced Rat Pleural Inflammation Model. The note with it: 0.5 h, male rats, dosed in 0.2% methocel one hour prior to intrapleural A23187, lavage 30 min later, enzyme immunoassay. How it is done: Inhibition of leukotriene biosynthesis in vivo was evaluated using the Ionophore […]-Induced Rat Plueral Inflammation Model. […] Rats were dosed with experimental compounds in 0.2% methocel one hour prior to the intrapleural injection of the calcium ionophore, A23187. The rats where lightly anesthetized with Pentrane (Abbott Laboratories) and injected intrapleurally with 0.5 ml of 2% ethanol in injectable saline (Abbott Laboratories) containing 20 μg of A23187 (Cal BioChem-Novabiochem). Thirty minutes later the animals were euthanised and the pleural cavities lavaged with ice cold saline (Abbott Laboratories). The lavage fluid was then added to ice cold methanol (final methanol concentration 30%) to lyse cells and precipitate protein. Eicosanoids were determined by enzyme immunoassay by standard methods.

Structures can show the parent of a compound that is named as a salt. Where two headings read alike, the source gives them in different places.

As to `CC(CCC(=O)O)(c1ccc(OCc2ccc3ccccc3n2)cc1)c1ccc(OCc2ccc3ccccc3n2)cc1` [Example 1, 4,4-bis(4-(2-quinolylmethoxy)phenyl)pentanoic acid], the IC50 in the test on 5-Lipoxygenase turned out to be 40 nM.
`CC(CCC(=O)O)(c1ccc(OCc2ccc3ccccc3n2)cc1)c1ccc(OCc2ccc3ccccc3n2)cc1` [Example 2, 4,4-bis(4-(2-quinolylmethoxy)phenyl)pentanoic acid sodium salt] displayed an inhibition in vivo at 3 mg/kg in the test with leukotriene biosynthesis of 53%. Further, in the test with 5-Lipoxygenase (sodium salt), the IC50 was 69 nM.
As for `CC(CCCON=CC(=O)O)(c1ccc(OCc2ccc3ccccc3n2)cc1)c1ccc(OCc2ccc3ccccc3n2)cc1` [Example 5, [4,4-bis(4-(2-quinolylmethoxy)phenyl)pent-1-yl]iminoxyacetic acid], the IC50 in the test on 5-Lipoxygenase turned out to be 30 nM.
The same measure, in the same setting: the figure for `CC(=NOCCCC(C)(c1ccc(OCc2ccc3ccccc3n2)cc1)c1ccc(OCc2ccc3ccccc3n2)cc1)C(=O)O` [Example 6, [4,4-bis(4-(2-quinolylmethoxy)phenyl)pent-1-yl]-2-iminoxypropionic acid] is 35 nM; for `CC(CCC=NOCC(=O)O)(c1ccc(OCc2ccc3ccccc3n2)cc1)c1ccc(OCc2ccc3ccccc3n2)cc1` [Example 7] it is 40 nM; for `CC(CCC(=O)O)(c1ccc(OCc2nc3ccccc3s2)cc1)c1ccc(OCc2nc3ccccc3s2)cc1` [Example 8, 4,4-bis(4-(2-benzothiazoylmethoxy)phenyl)pentanoic acid] it is 46 nM.
In the case of `CC(CCC(=O)O)(c1ccc(OCc2nc3ccccc3s2)cc1)c1ccc(OCc2nc3ccccc3s2)cc1` [Example 9, 4,4bis(4-(2-benzothiazoylmethoxy)phenyl)pentanoic acid sodium salt], the IC50 in the test with 5-Lipoxygenase (sodium salt) turned out to be 50 nM.
Turning to `CC(CCC(=O)O)(c1ccc(OCc2ccc3cc(F)ccc3n2)cc1)c1ccc(OCc2ccc3cc(F)ccc3n2)cc1` [Example 11, 4,4-bis(4-(6-fluoro-2-quinolylmethoxy)phenyl)pentanoic acid sodium salt], the inhibition in vivo at 3 mg/kg in the test with leukotriene biosynthesis turned out to be 42%. Besides, the IC50 with 5-Lipoxygenase worked out at 40 nM.
`CC(C(=O)O)(c1ccc(OCc2ccc3ccccc3n2)cc1)c1ccc(OCc2ccc3ccccc3n2)cc1` [Example 12, 2,2-bis(4-(2-quinolylmethoxy)phenyl)propionic acid]: the IC50 in the test on 5-Lipoxygenase came out at 32 nM.
In turn, `CC(CCCC(=O)O)(c1ccc(OCc2ccc3ccccc3n2)cc1)c1ccc(OCc2ccc3ccccc3n2)cc1` [Example 14, 5,5-bis(4-(2-quinolylmethoxy)phenyl)hexanoic acid] displayed an inhibition in vivo at 3 mg/kg with leukotriene biosynthesis of 32%. The IC50 in the test with 5-Lipoxygenase was 43 nM.
As to `CC(CCC(=O)O)(c1ccc(OCc2ccc3ccccc3n2)c(Cl)c1)c1ccc(OCc2ccc3ccccc3n2)c(Cl)c1` [Example 20, 4,4-bis(3-chloro-4-(2-quinolylmethoxy)phenyl)pentanoic acid], in the test on 5-Lipoxygenase, the IC50 was 26 nM.
`CCC(C(=O)O)(c1ccc(OCc2ccc3ccccc3n2)cc1)c1ccc(OCc2ccc3ccccc3n2)cc1` [Example 24, 2,2-bis(4-(2-quinolylmethoxy)phenyl)butyric acid] registered an inhibition in vivo at 3 mg/kg with leukotriene biosynthesis of 38%.
In the case of `CC(O)(c1ccc(OCc2ccc3ccccc3n2)cc1)c1ccc(OCc2ccc3ccccc3n2)cc1` [Example 25, 1,1-bis(4-(2-quinolylmethoxy)phenyl)ethanol], the IC50 with 5-Lipoxygenase came out at 50 nM.
As to `CC(C)(C(=O)O)C(c1ccc(OCc2ccc3ccccc3n2)cc1)c1ccc(OCc2ccc3ccccc3n2)cc1` [Example 26, 2,2-dimethyl-3,3-bis(4-(2-quinolylmethoxy)phenyl)propionic acid sodium salt], in the test with leukotriene biosynthesis, the inhibition in vivo at 3 mg/kg worked out at 50%. Besides, the IC50 in the test on 5-Lipoxygenase came to 80 nM.
The like results for `CC(C)(C=NOCC(=O)O)C(c1ccc(OCc2ccc3ccccc3n2)cc1)c1ccc(OCc2ccc3ccccc3n2)cc1` [Example 27, sodium salt] were, in that order, 42% and 28 nM.
Regarding `CC(C)(CON=CC(=O)O)C(c1ccc(OCc2ccc3ccccc3n2)cc1)c1ccc(OCc2ccc3ccccc3n2)cc1` [Example 28, 2,2-dimethyl-3,3-bis(4-(2-quinolylmethoxy)phenyl)-1-propyliminoxyacetic acid], the IC50 in the test on 5-Lipoxygenase was found to be 34 nM.
The same measure, in the same setting: with `O=C(O)C(c1ccc(OCc2ccc3cc(F)ccc3n2)cc1)c1ccc(OCc2ccc3cc(F)ccc3n2)cc1` [Example 30, 2,2-bis(4-(6-fluoro-2-quinolymethoxy)phenyl)acetic acid] the figure was 50 nM; with `O=C(O)CON=CC(c1ccc(OCc2ccc3ccccc3n2)cc1)c1ccc(OCc2ccc3ccccc3n2)cc1` [Example 31, 2,2-bis(4-(2-quinolylmethoxy)phenyl)eth-1-yloximinoacetic acid], 35 nM.
As to `O=C(O)CC(c1ccc(OCc2ccc3ccccc3n2)cc1)c1ccc(OCc2ccc3ccccc3n2)cc1` [Example 34, 3,3-bis(4-(2-quinolylmethoxy)phenyl)propionic acid sodium salt], the inhibition in vivo at 3 mg/kg in the test on leukotriene biosynthesis came to 30%. Further, the IC50 in the test on 5-Lipoxygenase is 70 nM.
In the case of `CC(=NOCCC(C)(c1ccc(OCc2ccc3ccccc3n2)cc1)c1ccc(OCc2ccc3ccccc3n2)cc1)C(=O)O` [Example 36, [3,3-bis-(2-quinolylmethoxyphenyl)but-1-yl]-2-iminoxypropionic acid], the IC50 with 5-Lipoxygenase stood at 25 nM.
In the test with leukotriene biosynthesis, `CC(=NOCCC#CC(O)(c1ccc(OCc2ccc3ccccc3n2)cc1)c1ccc(OCc2ccc3ccccc3n2)cc1)C(=O)O` [Example 38, [5,5-bis(4-(2-quinolylmethoxy)phenyl)-5-hydroxy-3-pentyn-1-yl]-2-iminoxypropionic acid sodium salt] came in with an inhibition in vivo at 3 mg/kg of 40%. Further, in the test with 5-Lipoxygenase, the IC50 was determined as 60 nM.

What is called IC50 is the concentration at which inhibition is half-maximal. Broadly, the inhibition in vivo is the percentage by which the read-out fell short of the control.
